Data from PMC4138103 (PLoS ONE, 2014).

Test system: Sprague-Dawley rats
Experiment: Hematology
Type: in vivo, Rattus norvegicus
Design: key to Dose response, MCH / Dose response, MCHC / Dose response, PLT / Dose response, MCV: D: significant dose response (for results, see Table 2); T: significant trend; HCT, Hematocrit: unit not given here
Conditions: for RBC, Red cell count / HCT, Hematocrit / Basophils / Eosinophils / HB, Hemoglobin / Lymphocytes / MCH, Mean corpuscular hemoglobin / MCHC, Mean corpuscular hemoglobin concentration / MCV, Mean corpuscular volume / MPV, Mean platelet volume / Monocytes / Neutrophils / PDW, Platelet distribution width / PLT, Platelet count / WBC, Leukocyte total count: group mean; for RBC, CED: adipose tissue concentration based
Description: Basic blood picture analysis was carried out using Advia 120 analyzer (Bayer, later Siemens Diagnostic Division, Dublin, Ireland). This analysis includes red cell count (RBC), hemoglobin (HB), hematocrit (HCT), platelet count (PLT), leukocyte total count (WBC) and differential count as well as the calculated red cell and platelet parameters mean corpuscular volume (MCV), mean corpuscular hemoglobin (MCH), mean corpuscular hemoglobin concentration (MCHC), red cell distribution width - standard deviation (RDW-SD), platelet distribution width (PDW) and mean platelet volume (MPV). Blood cell counting is based on isovolumetric sphering and fixing the cells, stains and light scattering. Visual leukocyte differential counting was done after May-Grünwald-Giemsa staining.
Data were also analyzed using the BMD method, which is based on dose-response modeling of the full data set using a nested family of exponential and Hill models. The analyses were done on data of males and females combined, using sex as a covariate. […] In that case, different Critical Effect Doses (CEDs) and CEDs at the lowest bound of the confidence interval (CED-L) were generated for each sex. If no difference between sexes is detected, a CED and CED-Ls for the combined data is generated. However, this was also done if the curve fits are close, and separate analyses for males and females were then performed manually. CEDs and CED-Ls were calculated at the predefined Critical Effect Size (CES) of 5% (EFSA standard) or 10%.

[1] = females, total doses 0-1700 mg/kg bw
[2] = females, CES 5%, total dose based
[3] = females, CES 10%, total dose based
[4] = males, total dose 3 mg/kg bw, N=5
[5] = males, total dose 10 mg/kg bw, N=5
[6] = males, total dose 30 mg/kg bw, N=5
[7] = males, total dose 100 mg/kg bw, N=5
[8] = males, total dose 300 mg/kg bw, N=5
[9] = males, total dose 300 mg/kg bw, N=5, p<0.01 vs. control
[10] = males, total dose 1000 mg/kg bw, N=5
[11] = males, total dose 1000 mg/kg bw, N=5, p<0.001 vs. control
[12] = males, total dose 1700 mg/kg bw, N=5
[13] = males, total dose 1700 mg/kg bw, N=5, p<0.001 vs. control
[14] = males, total doses 0-1700 mg/kg bw
[15] = males, CES 5%, total dose based
[16] = males, CES 10%, total dose based

SMILES: Clc1cc(Cl)c(-c2cc(Cl)c(Cl)c(Cl)c2Cl)cc1Cl [PCB 180, 2,2′,3′,4,4′,5,5′-heptachlorobiphenyl]
- RBC, Red cell count (females, total dose 1700 mg/kg bw, N=5, p<0.001 vs. control): 6.43e+12 L⁻¹
- HCT, Hematocrit (females, total dose 1700 mg/kg bw, N=5, p<0.01 vs. control): 0.41
- Dose response, HB [1]: D, T
- Dose response, HCT [1]: D, T
- Dose response, MCV [1]: T
- Dose response, RBC [1]: D, T
- Hematocrit, CED [2]: 832 mg/kg bw
- Hematocrit, CED-L [2]: 646 mg/kg bw
- Hemoglobin, CED [2]: 739 mg/kg bw
- Hemoglobin, CED-L [2]: 600 mg/kg bw
- Red blood cell count, CED [2]: 638 mg/kg bw
- Red blood cell count, CED-L [2]: 514 mg/kg bw
- Red cell distribution width - SD, CED [2]: 1400 mg/kg bw
- Red cell distribution width - SD, CED-L [2]: 1093 mg/kg bw
- Hematocrit, CED [3]: 1710 mg/kg bw
- Hematocrit, CED-L [3]: 1327 mg/kg bw
- Hemoglobin, CED [3]: 1520 mg/kg bw
- Hemoglobin, CED-L [3]: 1233 mg/kg bw
- Red blood cell count, CED [3]: 1310 mg/kg bw
- Red blood cell count, CED-L [3]: 1056 mg/kg bw
- Red cell distribution width - SD, CED [3]: 1650 mg/kg bw
- Red cell distribution width - SD, CED-L [3]: 1498 mg/kg bw
- RBC, CED (females): 4170 µg/g lipid
- Basophils [4]: 0.0%
- Eosinophils [4]: 0.6%
- HB, Hemoglobin [4]: 179 g/L
- HCT, Hematocrit [4]: 0.52
- Lymphocytes [4]: 87%
- MCH, Mean corpuscular hemoglobin [4]: 21.9 pg
- MCHC, Mean corpuscular hemoglobin concentration [4]: 346 g/L
- MCV, Mean corpuscular volume [4]: 63.4 fL
- MPV, Mean platelet volume [4]: 7.16 fL
- Monocytes [4]: 4.4%
- Neutrophils [4]: 8.0%
- PDW, Platelet distribution width [4]: 7.66 fL
- PLT, Platelet count [4]: 8.36e+11 L⁻¹
- RBC, Red cell count [4]: 8.18e+12 L⁻¹
- WBC, Leukocyte total count [4]: 1.896e+10 L⁻¹
- Basophils [5]: 0.2%
- Eosinophils [5]: 0.6%
- HB, Hemoglobin [5]: 171 g/L
- HCT, Hematocrit [5]: 0.49
- Lymphocytes [5]: 84.6%
- MCH, Mean corpuscular hemoglobin [5]: 22.02 pg
- MCHC, Mean corpuscular hemoglobin concentration [5]: 350 g/L
- MCV, Mean corpuscular volume [5]: 63.0 fL
- MPV, Mean platelet volume [5]: 6.96 fL
- Monocytes [5]: 4.4%
- Neutrophils [5]: 10.2%
- PDW, Platelet distribution width [5]: 7.54 fL
- PLT, Platelet count [5]: 8.27e+11 L⁻¹
- RBC, Red cell count [5]: 7.79e+12 L⁻¹
- WBC, Leukocyte total count [5]: 1.674e+10 L⁻¹
- Basophils [6]: 0.0%
- Eosinophils [6]: 0.6%
- HB, Hemoglobin [6]: 170 g/L
- HCT, Hematocrit [6]: 0.49
- Lymphocytes [6]: 87.8%
- MCH, Mean corpuscular hemoglobin [6]: 22 pg
- MCHC, Mean corpuscular hemoglobin concentration [6]: 349 g/L
- MCV, Mean corpuscular volume [6]: 63.1 fL
- MPV, Mean platelet volume [6]: 6.92 fL
- Monocytes [6]: 4.2%
- Neutrophils [6]: 7.4%
- PDW, Platelet distribution width [6]: 7.44 fL
- PLT, Platelet count [6]: 8.6e+11 L⁻¹
- RBC, Red cell count [6]: 7.73e+12 L⁻¹
- WBC, Leukocyte total count [6]: 1.7e+10 L⁻¹
- Basophils [7]: 0.0%
- Eosinophils [7]: 0.6%
- HB, Hemoglobin [7]: 170 g/L
- HCT, Hematocrit [7]: 0.48
- Lymphocytes [7]: 87.8%
- MCH, Mean corpuscular hemoglobin [7]: 22.18 pg
- MCHC, Mean corpuscular hemoglobin concentration [7]: 352 g/L
- MCV, Mean corpuscular volume [7]: 63.1 fL
- MPV, Mean platelet volume [7]: 7.28 fL
- Monocytes [7]: 4.4%
- Neutrophils [7]: 7.2%
- PDW, Platelet distribution width [7]: 7.90 fL
- PLT, Platelet count [7]: 8.93e+11 L⁻¹
- RBC, Red cell count [7]: 7.65e+12 L⁻¹
- WBC, Leukocyte total count [7]: 1.654e+10 L⁻¹
- Basophils [8]: 0.0%
- Eosinophils [8]: 1.0%
- HB, Hemoglobin [8]: 165 g/L
- Lymphocytes [8]: 85.8%
- MCH, Mean corpuscular hemoglobin [8]: 22.38 pg
- MCHC, Mean corpuscular hemoglobin concentration [8]: 351 g/L
- MCV, Mean corpuscular volume [8]: 63.8 fL
- MPV, Mean platelet volume [8]: 7.12 fL
- Monocytes [8]: 5.2%
- Neutrophils [8]: 8.0%
- PDW, Platelet distribution width [8]: 7.66 fL
- PLT, Platelet count [8]: 9.4e+11 L⁻¹
- WBC, Leukocyte total count [8]: 2.076e+10 L⁻¹
- HCT, Hematocrit [9]: 0.47
- RBC, Red cell count [9]: 7.38e+12 L⁻¹
- Basophils [10]: 0.0%
- Eosinophils [10]: 1.0%
- Lymphocytes [10]: 86.8%
- MCH, Mean corpuscular hemoglobin [10]: 22.94 pg
- MCV, Mean corpuscular volume [10]: 63.2 fL
- MPV, Mean platelet volume [10]: 7.04 fL
- Monocytes [10]: 3.6%
- Neutrophils [10]: 8.6%
- PDW, Platelet distribution width [10]: 7.60 fL
- PLT, Platelet count [10]: 8.85e+11 L⁻¹
- WBC, Leukocyte total count [10]: 1.798e+10 L⁻¹
- HCT, Hematocrit [11]: 0.44
- RBC, Red cell count [11]: 6.99e+12 L⁻¹
- MCHC, Mean corpuscular hemoglobin concentration (males, total dose 1000 mg/kg bw, N=5, p<0.01 vs. control): 364 g/L
- HB, Hemoglobin (males, total dose 1000 mg/kg bw, N=5, p<0.05 vs. control): 161 g/L
- Basophils [12]: 0.4%
- Eosinophils [12]: 0.4%
- Lymphocytes [12]: 87.2%
- MCH, Mean corpuscular hemoglobin [12]: 22.78 pg
- MCHC, Mean corpuscular hemoglobin concentration [12]: 355 g/L
- MCV, Mean corpuscular volume [12]: 64.2 fL
- MPV, Mean platelet volume [12]: 7.08 fL
- Monocytes [12]: 5.4%
- Neutrophils [12]: 6.6%
- PDW, Platelet distribution width [12]: 7.54 fL
- PLT, Platelet count [12]: 9.37e+11 L⁻¹
- WBC, Leukocyte total count [12]: 1.68e+10 L⁻¹
- HCT, Hematocrit [13]: 0.45
- RBC, Red cell count [13]: 6.99e+12 L⁻¹
- HB, Hemoglobin (males, total dose 1700 mg/kg bw, N=5, p<0.01 vs. control): 159 g/L
- Dose response, HB [14]: D, T
- Dose response, HCT [14]: D, T
- Dose response, MCH [14]: T
- Dose response, MCHC [14]: T
- Dose response, PLT [14]: T
- Dose response, RBC [14]: D, T
- Hematocrit, CED [15]: 140 mg/kg bw
- Hematocrit, CED-L [15]: 66.3 mg/kg bw
- Hemoglobin, CED [15]: 201 mg/kg bw
- Hemoglobin, CED-L [15]: 62.8 mg/kg bw
- Platelet count, CED [15]: 40.7 mg/kg bw
- Platelet count, CED-L [15]: 9.68 mg/kg bw
- Red blood cell count, CED [15]: 138 mg/kg bw
- Red blood cell count, CED-L [15]: 82.2 mg/kg bw
- Hematocrit, CED [16]: 481 mg/kg bw
- Platelet count, CED [16]: 143 mg/kg bw
- Red blood cell count, CED [16]: 436 mg/kg bw
- Red blood cell count, CED-L [16]: 252 mg/kg bw
- RBC, CED (males): 598 µg/g lipid
